Entries after “also recorded” stand apart in the source; their conditions may differ.
What was measured:
15-PGDH (Hpgd) = experiment: Senolytic ABT-263 treatment of aged mice: 15-PGDH in muscle; assay type: in vivo, mouse; conditions: 20 month mice, analyzed 2 months later
Experimental: For ABT-263 treatments, 20 month old C57/B16 mice were treated with vehicle (ethanol:polyethylene glycol 400:Phosal 50 PG) or ABT-263 (in ethanol:polyethylene glycol 400:Phosal 50 PG) by oral gavage for 2 cycles of 1 week with a 2 week rest period between cycles as described previously (1). For the Duchenne muscular dystrophy (DMD) mouse model, we used 8-10 month old mdx4cv/mTRKO(G2) generated as previously described (2).
(§1) For ABT-263 treatments, 20 month old C57/B16 mice were treated with vehicle (ethanol:polyethylene glycol 400:Phosal 50 PG) or 50 mg/kg/day ABT-263 (in ethanol:polyethylene glycol 400:Phosal 50 PG) by oral gavage for 2 cycles of 1 week with a 2 week rest period between cycles as described previously (5). Intramuscular injection of PGE2 was carried out in young mice with either 13 nmol PGE2 (Cayman Chemicals) or vehicle control (PBS) into the TA muscle. Mouse transgenic strains were purchased from The Jackson Laboratory (EP4^flox/flox; EP4O) No. 028102 (6). We validated these genotypes by appropriate PCR-based strategies. Studies were performed with male mice.
We collected and prepared recipient Tibialis anterior (TA) or gastrocnemius (GA) muscle tissues for histology as previously described (6). […]

INK-ATTAC mice = experiment: AP20187 clearance of senescent cells in INK-ATTAC mice; assay type: in vivo, mouse; conditions: 16-month treatment
From the text: We performed all experiments and protocols in compliance with the institutional guidelines of Stanford University and Administrative Panel on Laboratory Animal Care (APLAC). Middle aged (18-20 mo.) and aged (>24 mo.) mice C57BL/6 were obtained the US National Institute on Aging (NIA) for aged muscle studies, and young (2-4 mo.) wild-type C57BL/6 mice from Jackson Laboratory. INK-ATTAC mice were generated as previously described (1). INK-ATTAC healthspan assessments. INK-ATTAC mice were crossed onto the C57BL6/J genetic background and maintained in specific-pathogen free housing on a 12-hour dark/light cycle for study duration. At 12 months of age, male mice were either utilized for baseline healthspan assessments and terminal muscle harvest or randomized to receive twice-weekly vehicle or AP20187 (2 mg/kg intraperitoneal injection; B/B homodimerizer, Clontech) until assessment and sacrifice at 28 months of age (2). […] Time and distance to exhaustion was performed as previously described (4) for SW-treated mice and their controls.
We isolated and enriched myogenic cells as previously described (6-9). Briefly, hindlimb muscles were minced and digested using a collagenase and dispase solution by the MACs Dissociator (Miltenyi). Using FACs, for myogenic stem and progenitor cells we isolated cells negative for the hematopoietic lineage and non-muscle cells (CD45-/CD11b-/CD31-/Scal-) and sorted for a7-integrin*cells markers. For macrophages isolation we sorted a7-/Cd11b+/Cd11c-/F4/80^+ populations. For endothelial cells we sorted a7-/Cd11b-/Cd11c/CD31+. We generated and analyzed flow cytometry scatter plots using FlowJo v10.0.

myotubes = experiment: Differentiated (starved) cultured myotubes: Atrogin1 expression and diameter; assay type: cell-based, mouse
Experimental: For myotubes we performed fixation using 4% PFA, blocking and permeabilization using PBS/1% BSA/0.1% Triton X-100 and staining with primary antibodies anti-MyHC (Thermo Fisher Scientific, catalog #14-6503-82, clone MF-20, 1:500) and then with AlexaFluor secondary Antibodies (Jackson ImmunoResearch Laboratories, 1:500). We counterstained nuclei with DAPI (Invitrogen).
Primary myoblasts were grown in myogenic cell culture medium containing DMEM/F10 (50:50), 15% FBS, 2.5 ng ml-1 fibroblast growth factor-2 and 1% penicillin-streptomycin. For differentiation experiments, confluent myoblasts were grown in medium containing 5% horse serum, DMEM. […] Myoblasts were isolated from EP4^fl/fl mice and received either a mCherry/Cre lentivirus or a mock infection as previously described (5).
For cultured myotubes we performed fixation using 4% PFA, blocking and permeabilization using PBS/1% BSA/0.1% Triton X-100 and staining with primary antibodies anti-MYH (Thermo Fisher Scientific, catalog #14-6503-82, clone MF-20, 1:500) and then with AlexaFluor secondary Antibodies (Jackson ImmunoResearch Laboratories, 1:500). We counterstained nuclei with DAPI (Invitrogen). We acquired images using the KEYENCE BZ-X700 all-in-one fluorescence microscope (Keyence) with 20x/0.75 N.A. objectives. We analyzed the fiber area using the Keyence Advanced Analysis Software. For fiber area the entire maximum cross-sectional area of the muscle was quantified or at least 10 fields of LAMININ or WGA stained myofiber cross-sections encompassing over 400 myofibers were captured for each mouse as above. For fiber typing analysis, the MATLAB application SMASH-Semi-Automatic Muscle Analysis Using Segmentation of Histology, was used as previously described (12). Data analyses were blinded. The researchers performing the imaging acquisition and scoring were unaware of treatment condition given to sample groups analyzed.
Primary murine myoblasts were grown in myogenic cell culture medium containing DMEM/F10 (50:50), 15% FBS, 2.5 ng ml^−1 fibroblast growth factor-2 and 1% penicillin-streptomycin. […] For differentiation experiments, confluent myoblasts were grown in medium containing 5% horse serum, DMEM.

[1] = tested on: cyclic AMP response element binding protein (CREB); experiment: Immunoblots of muscle lysates after intramuscular PGE2; assay type: in vivo, mouse; conditions: young mice, 13 nmol i.m., 0, 30 or 60 minutes
Experimental: as §1
Total lysates were prepared using lysis buffer (50 mM Tris-HCl pH 7.5, 150 mM NaCl, 4 mM CaCl, 1.5% Triton X-100, protease inhibitors and micrococcal nuclease). For tissue extracts, lysates were homogenized a FastPrep 24 homogenizer (MP Biomedicals) for 40 seconds at a speed of 6 m/s. We used the following antibodies: 15-PGDH (Santa Cruz Biotechnology, cat # sc-271418); phospho-AKT (Ser 473) (Cell Signaling cat #4060), AKT (Cell signaling cat #2920); phospho-FoxO1 (Thr24)/FoxO3a (Thr32) Antibody (Cell Signaling cat #9464T); Foxo3a (Cell Signaling cat #2497); phospho-CREB (Ser133) (Cell Signaling cat #9198S); phospho-S6 ribosomal protein (Ser235/236) (Cell Signaling cat#4858); SMC1 (Bethyl Laboratories cat# A300-055A-T). […]

murine myotubes = experiment: Protein synthesis by in vitro SUnSET (puromycin incorporation); assay type: cell-based, mouse; conditions: PGE2 10 ng/ml daily, 4 d
Experimental: The SUnSET assay was used to monitor the rate of protein synthesis as previously described (4). Briefly, 10 min prior harvesting the cells, puromycin was added to culture medium at […]. As a control, cycloheximide to block protein translation was added. Cell extracts were then processed for western blotting using anti-puromycin 12D10 antibody (Millipore).

AKT/FOXO pathway = experiment: Immunoblots of human myotubes treated with PGE2; assay type: cell-based; conditions: PGE2 10 ng/ml, 15 or 30 minutes
Experimental: Primary murine myoblasts were grown in myogenic cell culture medium containing DMEM/F10 (50:50), 15% FBS, 2.5 ng ml^-1 fibroblast growth factor-2 and 1% penicillin-streptomycin. […] For differentiation experiments, confluent myoblasts were grown in medium containing 5% horse serum, DMEM. […] Total lysates were prepared using lysis buffer (50 mM Tris-HCl pH 7.5, 150 mM NaCl, 4 mM CaCl, 1.5% Triton X-100, protease inhibitors and micrococcal nuclease). […] We used the following antibodies: 15-PGDH (Santa Cruz Biotechnology, cat # sc-271418); phospho-AKT ([…]) (Cell Signaling cat #4060), AKT (Cell signaling cat #2920); phospho-FoxO1 ([…])/FoxO3a ([…]) Antibody (Cell Signaling cat #9464T); Foxo3a (Cell Signaling cat #2497); phospho-CREB (Ser133) (Cell Signaling cat #9198S); phospho-S6 ribosomal protein (Ser235/236) (Cell Signaling cat#4858); SMC1 (Bethyl Laboratories cat# […]). We used HRP conjugated secondary antibodies and developed by incubating the membranes with ECL Western Blotting Substrate (Nacalai USA) and imaging using the ChemiDoc Imaging System (BioRad).

Which results are given for CC1(C)CCC(c2ccc(Cl)cc2)=C(CN2CCN(c3ccc(C(=O)NS(=O)(=O)c4ccc(N[C@H](CCN5CCOCC5)CSc5ccccc5)c(S(=O)(=O)C(F)(F)F)c4)cc3)CC2)C1 [ABT-263, navitoclax]?
15-PGDH (Hpgd) mRNA / gene expression levels in muscle (15-PGDH (Hpgd); 50 mg/kg/day oral gavage, 2 cycles, 50 mg/kg/day): reduced; also recorded: markedly decreased; percentage of cells expressing 15-PGDH by immunohistochemistry (15-PGDH (Hpgd)): markedly decreased

Which “15-PGDH levels in FACS isolated macrophages” value (INK-ATTAC mice) does the source give for CC[C@H](C(=O)N1CCCC[C@H]1C(=O)O[C@H](CCc1ccc(OC)c(OC)c1)c1cccc(OCC(=O)NCC(CNC(=O)COc2cccc([C@@H](CCc3ccc(OC)c(OC)c3)OC(=O)[C@@H]3CCCCN3C(=O)[C@@H](CC)c3cc(OC)c(OC)c(OC)c3)c2)CN(C)C)c1)c1cc(OC)c(OC)c(OC)c1 [AP] here?
The value was “reduced levels”.

And the “PGE2 levels in muscle by LC-MS/MS” value (INK-ATTAC mice)?
The value was “increase”.

And the “15-PGDH transcript levels in muscle” value (INK-ATTAC mice; 2 mg/kg i.p. twice weekly)?
Its value is “markedly reduced”.

What about the “endurance (distance run on a treadmill until exhaustion and body weight)” value (INK-ATTAC mice; 28 months) of the same compound?
Its value is “increase”.

What about the grip strength (INK-ATTAC mice; 28 months) of the same compound?
The grip strength was “increase”.

What about the “hindlimb muscle mass (TA and GA)” value (INK-ATTAC mice; 28 months) of the same compound?
The value was “increase”.

How did the “PGE2-induced increase of myotube diameter in the presence of the antagonist” value (myotubes; ONO-AE3-208 1 μM with PGE2 10 ng/ml) turn out when CC(C(=O)Nc1cc(C#N)ccc1CCCC(=O)O)c1ccc(F)c2ccccc12 (stereo not shown) [ONO-AE3-208] was run?
The value was “abrogated; also recorded: not seen”.

With CCCCC[C@H](O)/C=C/[C@H]1[C@H](O)CC(=O)[C@@H]1C/C=C\CCCC(=O)O [PGE2, Prostaglandin E2] as the compound, how does the “CREB activation in skeletal muscles” value [1] read?
The value was “activates; also recorded: activation”.

And the “protein synthesis quantified by puromycin incorporation” value (murine myotubes)?
Its value is “increased”.

And the “FOXO (pFOXO3a)” value (AKT/FOXO pathway)?
The value was “inactivated”.

What about the pAKT levels (AKT/FOXO pathway) of the same compound?
Its pAKT levels is “increased levels”.

And the “phospho-S6 ribosomal protein (pS6rp)” value (AKT/FOXO pathway)?
The value was “activated”.

And the myotube diameter (myotubes; starved (24 hr) or non-starved myotubes, PGE2 10 ng/ml, SW 1 μM)?
The myotube diameter was “increased; also recorded: marked increase”.

And the Atrogin1 expression (myotubes; starved myotubes, PGE2 10 ng/ml)?
The Atrogin1 expression was “greatly decreased”.

Source: patent publication US20220304992A1, “METHODS OF REJUVENATING AGED TISSUE BY INHIBITING 15-HYDROXYPROSTAGLANDIN DEHYDROGENASE (15-PGDH)” (The Board of Trustees of the Leland Stanford Junior …, priority 2019, published 2022)
